Laboratory results published in patent US20240058422A1, “GLUCAGON-LIKE PEPTIDE-1 RECEPTOR ANTAGONISTS” (INDIANA UNIVERSITY RESEARCH AND TECHNOLOGY CORPORATION, priority 2022, published 2024).
Like-named read-outs stand apart in the source and are kept apart here. Starred links: 1 amine or outer side, 2 acyl side, 3 side chain; linkers in the order of their positions; H or OH if unused. Non-standard residues stand in square brackets, D forms with d. Residues, ends and D or L forms follow the SMILES beside them. Groups on a side chain read outwards from the residue. *: point of attachment. C18 diacid = O=C(O)CCCCCCCCCCCCCCCCC(=O)*; γGlu = O=C(O)[C@H](CCC(=O)[*:2])N[*:1]; Palmitoyl = CCCCCCCCCCCCCCCC(=O)*; AEEA = NCCOCCOCC(=O)O

What was measured:
physchem = details: pH 7.7, Solubility 80 mM AmeBicarb pH7.7
Solubility in buffer = details: 80 mM ammonium bicarbonate buffer, 80 mM AmBicarb pH7.7
GLP-1R = GLP-1R (Homo sapiens, UniProt P43220); test: GLP-1 receptor-mediated cAMP induction, luciferase reporter gene antagonism assay; assay type: cell-based; set-up: host or cells: HEK 293; details: antagonism of 0.05 nM GLP-1, HEK 293 cells
GLP-1R, sequence (P43220 24-463): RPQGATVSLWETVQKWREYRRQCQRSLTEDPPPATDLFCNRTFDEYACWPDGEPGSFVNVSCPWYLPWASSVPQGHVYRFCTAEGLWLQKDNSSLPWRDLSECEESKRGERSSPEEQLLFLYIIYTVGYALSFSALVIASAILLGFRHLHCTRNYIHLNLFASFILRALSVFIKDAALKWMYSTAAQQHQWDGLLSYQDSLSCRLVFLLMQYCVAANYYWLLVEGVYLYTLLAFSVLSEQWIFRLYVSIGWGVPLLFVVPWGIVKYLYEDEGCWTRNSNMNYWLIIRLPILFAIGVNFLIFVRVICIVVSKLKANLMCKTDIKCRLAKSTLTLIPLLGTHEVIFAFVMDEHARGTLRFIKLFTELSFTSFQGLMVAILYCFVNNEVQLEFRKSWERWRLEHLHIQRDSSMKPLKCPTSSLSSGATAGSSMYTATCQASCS
Method in brief: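 HEK 293 cells cotransfected with human GLP-1 receptor and CRE-luciferase were serum-deprived 16 h, then given serial peptide dilutions followed by 0.05 nM GLP-1 and incubated 5 h at 37° C.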

[1] = pH 7.7, Solubility [mg/mL] 80 mM AmBicarb pH7.7, Table 2
[2] = Table 2, C16 linker variants of 9-40amide Jant4 K40[X], read-out: Biactivity IC50
[3] = pH 7.7, Solubility [mg/mL] 80 mM/AmBicarb pH7.7, Table 5
[4] = Table 5, d-AA variants of 9-40am Jant4 K40[C16], read-out: Bioactivity KC50

SMILES	solubility (physchem) [mg/mL]	solubility (Solubility in buffer; [1]) [mg/mL]	IC50 (GLP-1R; [2]) [nM]	solubility (Solubility in buffer; [3]) [mg/mL]	IC50 (GLP-1R; [4]) [nM]
CCCCCCCCCCCCCCCC(=O)N[C@@H](CCC(=O)NCCOCCOCC(=O)NCCCC[C@H](NC(=O)[C@H](CO)NC(=O)[C@@H]1CCCN1C(=O)[C@@H]1CCCN1C(=O)[C@@H]1CCCN1C(=O)[C@H](C)NC(=O)CNC(=O)[C@H](CO)NC(=O)[C@H](CO)NC(=O)[C@@H]1CCCN1C(=O)CNC(=O)CNC(=O)[C@@H](NC(=O)[C@H](CCCNC(=N)N)NC(=O)[C@H](CC(C)C)NC(=O)[C@H](Cc1c[nH]c2ccccc12)NC(=O)[C@H](CCC(=O)O)NC(=O)[C@@H](NC(=O)[C@H](Cc1ccccc1)NC(=O)[C@H](CCC(=O)O)NC(=O)[C@H](CCCNC(=N)N)NC(=O)[C@@H](NC(=O)[C@H](C)NC(=O)[C@H](CCC(N)=O)NC(=O)[C@H](CCC(=O)O)NC(=O)[C@H](CCC(=O)O)NC(=O)[C@H](CC(C)C)NC(=O)[C@H](Cc1ccc(O)cc1)NC(=O)[C@H](CO)NC(=O)[C@H](CO)NC(=O)[C@@H](NC(=O)[C@@H](N)CC(=O)O)C(C)C)C(C)C)[C@@H](C)CC)C(C)C)C(=O)O)C(=O)O [compound 79]	> 20				
CCCCCCCCCCCCCCCC(=O)N[C@@H](CCC(=O)N[C@@H](CCC(=O)NCCCC[C@H](NC(=O)[C@H](CO)NC(=O)[C@@H]1CCCN1C(=O)[C@@H]1CCCN1C(=O)[C@@H]1CCCN1C(=O)[C@H](C)NC(=O)CNC(=O)[C@H](CO)NC(=O)[C@H](CO)NC(=O)[C@@H]1CCCN1C(=O)CNC(=O)CNC(=O)[C@H](CCCCN)NC(=O)[C@@H](NC(=O)[C@H](CC(C)C)NC(=O)[C@H](Cc1c[nH]c2ccccc12)NC(=O)[C@H](C)NC(=O)[C@@H](NC(=O)[C@H](Cc1ccccc1)NC(=O)[C@H](CCC(=O)O)NC(=O)[C@H](CCCNC(=N)N)NC(=O)[C@@H](NC(=O)[C@H](C)NC(=O)[C@H](CCC(N)=O)NC(=O)[C@H](CCC(=O)O)NC(=O)[C@H](CCC(=O)O)NC(=O)[C@H](CC(C)C)NC(=O)[C@H](Cc1ccc(O)cc1)NC(=O)[C@H](CO)NC(=O)[C@H](CO)NC(=O)[C@@H](NC(=O)[C@@H](N)CC(=O)O)C(C)C)C(C)C)[C@@H](C)CC)C(C)C)C(N)=O)C(=O)O)C(=O)O [compound 53] (H-DVSSYLEEQAVREFIAWLVKGGPSSGAPPPSK([γGlu-γGlu-Palmitoyl])-NH2)		> 20	13		
CC[C@H](C)[C@H](NC(=O)[C@H](Cc1ccccc1)NC(=O)[C@H](CCC(=O)O)NC(=O)[C@H](CCCNC(=N)N)NC(=O)[C@@H](NC(=O)[C@H](C)NC(=O)[C@H](CCC(N)=O)NC(=O)[C@H](CCC(=O)O)NC(=O)[C@H](CCC(=O)O)NC(=O)[C@H](CC(C)C)NC(=O)[C@H](Cc1ccc(O)cc1)NC(=O)[C@H](CO)NC(=O)[C@H](CO)NC(=O)[C@@H](NC(=O)[C@@H](N)CC(=O)O)C(C)C)C(C)C)C(=O)N[C@@H](C)C(=O)N[C@@H](Cc1c[nH]c2ccccc12)C(=O)N[C@@H](CC(C)C)C(=O)N[C@H](C(=O)N[C@@H](CCCCN)C(=O)NCC(=O)NCC(=O)N1CCC[C@H]1C(=O)N[C@@H](CO)C(=O)N[C@@H](CO)C(=O)NCC(=O)N[C@@H](C)C(=O)N1CCC[C@H]1C(=O)N1CCC[C@H]1C(=O)N1CCC[C@H]1C(=O)N[C@@H](CO)C(=O)N[C@@H](CCCCNC(=O)CC[C@H](NC(=O)CC[C@H](NC(=O)CC[C@H](NC(=O)CC[C@H](NC(=O)CCCCCCCCCCCCCCCCC(=O)O)C(=O)O)C(=O)O)C(=O)O)C(=O)O)C(N)=O)C(C)C [compound 65] (H-DVSSYLEEQAVREFIAWLVKGGPSSGAPPPSK([γGlu-γGlu-γGlu-γGlu-C18 diacid])-NH2; N-terminus assumed)		> 25	1070		
CCCCCCCCCCCCCCCC(=O)N[C@@H](CCC(=O)NCCOCCOCC(=O)N[C@@H](CCC(=O)NCCOCCOCC(=O)NCCCC[C@H](NC(=O)[C@H](CO)NC(=O)[C@@H]1CCCN1C(=O)[C@@H]1CCCN1C(=O)[C@@H]1CCCN1C(=O)[C@H](C)NC(=O)CNC(=O)[C@H](CO)NC(=O)[C@H](CO)NC(=O)[C@@H]1CCCN1C(=O)CNC(=O)CNC(=O)[C@H](CCCCN)NC(=O)[C@@H](NC(=O)[C@H](CC(C)C)NC(=O)[C@H](Cc1c[nH]c2ccccc12)NC(=O)[C@H](C)NC(=O)[C@@H](NC(=O)[C@H](Cc1ccccc1)NC(=O)[C@H](CCC(=O)O)NC(=O)[C@H](CCCNC(=N)N)NC(=O)[C@@H](NC(=O)[C@H](C)NC(=O)[C@H](CCC(N)=O)NC(=O)[C@H](CCC(=O)O)NC(=O)[C@H](CCC(=O)O)NC(=O)[C@H](CC(C)C)NC(=O)[C@H](Cc1ccc(O)cc1)NC(=O)[C@H](CO)NC(=O)[C@H](CO)NC(=O)[C@@H](NC(=O)[C@@H](N)CC(=O)O)C(C)C)C(C)C)[C@@H](C)CC)C(C)C)C(N)=O)C(=O)O)C(=O)O [compound 59] (H-DVSSYLEEQAVREFIAWLVKGGPSSGAPPPSK([AEEA-γGlu-AEEA-γGlu-Palmitoyl])-NH2; N-terminus assumed)		> 25	11		
CCCCCCCCCCCCCCCC(=O)N[C@@H](CCC(=O)N[C@@H](CCC(=O)N[C@@H](CCC(=O)N[C@@H](CCC(=O)NCCCC[C@H](NC(=O)[C@H](CO)NC(=O)[C@@H]1CCCN1C(=O)[C@@H]1CCCN1C(=O)[C@@H]1CCCN1C(=O)[C@H](C)NC(=O)CNC(=O)[C@H](CO)NC(=O)[C@H](CO)NC(=O)[C@@H]1CCCN1C(=O)CNC(=O)CNC(=O)[C@H](CCCCN)NC(=O)[C@@H](NC(=O)[C@H](CC(C)C)NC(=O)[C@H](Cc1c[nH]c2ccccc12)NC(=O)[C@H](C)NC(=O)[C@@H](NC(=O)[C@H](Cc1ccccc1)NC(=O)[C@H](CCC(=O)O)NC(=O)[C@H](CCCNC(=N)N)NC(=O)[C@@H](NC(=O)[C@H](C)NC(=O)[C@H](CCC(N)=O)NC(=O)[C@H](CCC(=O)O)NC(=O)[C@H](CCC(=O)O)NC(=O)[C@H](CC(C)C)NC(=O)[C@H](Cc1ccc(O)cc1)NC(=O)[C@H](CO)NC(=O)[C@H](CO)NC(=O)[C@@H](NC(=O)[C@@H](N)CC(=O)O)C(C)C)C(C)C)[C@@H](C)CC)C(C)C)C(N)=O)C(=O)O)C(=O)O)C(=O)O)C(=O)O [compound 54] (H-DVSSYLEEQAVREFIAWLVKGGPSSGAPPPSK([γGlu-γGlu-γGlu-γGlu-Palmitoyl])-NH2)		> 20	21		
CCCCCCCCCCCCCCCC(=O)NCCCC[C@H](NC(=O)[C@H](CO)NC(=O)[C@@H]1CCCN1C(=O)[C@@H]1CCCN1C(=O)[C@@H]1CCCN1C(=O)[C@H](C)NC(=O)CNC(=O)[C@H](CO)NC(=O)[C@H](CO)NC(=O)[C@@H]1CCCN1C(=O)CNC(=O)CNC(=O)[C@H](CCCCN)NC(=O)[C@@H](NC(=O)[C@H](CC(C)C)NC(=O)[C@H](Cc1c[nH]c2ccccc12)NC(=O)[C@H](C)NC(=O)[C@@H](NC(=O)[C@H](Cc1ccccc1)NC(=O)[C@H](CCC(=O)O)NC(=O)[C@H](CCCNC(=N)N)NC(=O)[C@@H](NC(=O)[C@H](C)NC(=O)[C@H](CCC(N)=O)NC(=O)[C@H](CCC(=O)O)NC(=O)[C@@H](CCC(=O)O)NC(=O)[C@H](CC(C)C)NC(=O)[C@H](Cc1ccc(O)cc1)NC(=O)[C@H](CO)NC(=O)[C@H](CO)NC(=O)[C@@H](NC(=O)[C@@H](N)CC(=O)O)C(C)C)C(C)C)[C@@H](C)CC)C(C)C)C(N)=O [compound 49] (H-DVSSYL[dE]EQAVREFIAWLVKGGPSSGAPPPSK(Palmitoyl)-NH2; N-terminus assumed)				> 20	23
CCCCCCCCCCCCCCCC(=O)NCCCC[C@H](NC(=O)[C@H](CO)NC(=O)[C@@H]1CCCN1C(=O)[C@@H]1CCCN1C(=O)[C@@H]1CCCN1C(=O)[C@H](C)NC(=O)CNC(=O)[C@H](CO)NC(=O)[C@H](CO)NC(=O)[C@@H]1CCCN1C(=O)CNC(=O)CNC(=O)[C@H](CCCCN)NC(=O)[C@@H](NC(=O)[C@H](CC(C)C)NC(=O)[C@H](Cc1c[nH]c2ccccc12)NC(=O)[C@H](C)NC(=O)[C@H](NC(=O)[C@H](Cc1ccccc1)NC(=O)[C@H](CCC(=O)O)NC(=O)[C@H](CCCNC(=N)N)NC(=O)[C@@H](NC(=O)[C@H](C)NC(=O)[C@H](CCC(N)=O)NC(=O)[C@H](CCC(=O)O)NC(=O)[C@H](CCC(=O)O)NC(=O)[C@H](CC(C)C)NC(=O)[C@H](Cc1ccc(O)cc1)NC(=O)[C@H](CO)NC(=O)[C@H](CO)NC(=O)[C@@H](NC(=O)[C@@H](N)CC(=O)O)C(C)C)C(C)C)[C@H](C)CC)C(C)C)C(N)=O [compound 51] (H-DVSSYLEEQAVREF[dI]AWLVKGGPSSGAPPPSK(Palmitoyl)-NH2; N-terminus assumed)				> 20	31
CC[C@H](C)[C@H](NC(=O)[C@H](Cc1ccccc1)NC(=O)[C@H](CCC(=O)O)NC(=O)[C@H](CCCNC(=N)N)NC(=O)[C@@H](NC(=O)[C@H](C)NC(=O)[C@H](CCC(N)=O)NC(=O)[C@H](CCC(=O)O)NC(=O)[C@H](CCC(=O)O)NC(=O)[C@H](CC(C)C)NC(=O)[C@H](Cc1ccc(O)cc1)NC(=O)[C@H](CO)NC(=O)[C@H](CO)NC(=O)[C@@H](NC(=O)[C@@H](N)CC(=O)O)C(C)C)C(C)C)C(=O)N[C@@H](C)C(=O)N[C@@H](Cc1c[nH]c2ccccc12)C(=O)N[C@@H](CC(C)C)C(=O)N[C@H](C(=O)N[C@@H](CCCCN)C(=O)NCC(=O)NCC(=O)N1CCC[C@H]1C(=O)N[C@@H](CO)C(=O)N[C@@H](CO)C(=O)NCC(=O)N[C@@H](C)C(=O)N1CCC[C@H]1C(=O)N1CCC[C@H]1C(=O)N1CCC[C@H]1C(=O)N[C@@H](CO)C(=O)N[C@@H](CCCCNC(=O)CC[C@H](NC(=O)CC[C@H](NC(=O)CC[C@H](NC(=O)CC[C@H](NC(=O)CC[C@H](NC(=O)CC[C@H](NC(=O)CCCCCCCCCCCCCCCCC(=O)O)C(=O)O)C(=O)O)C(=O)O)C(=O)O)C(=O)O)C(=O)O)C(N)=O)C(C)C [compound 66] (H-DVSSYLEEQAVREFIAWLVKGGPSSGAPPPSK([γGlu-γGlu-γGlu-γGlu-γGlu-γGlu-C18 diacid])-NH2; N-terminus assumed)		> 25	1460		
